Literature values, collected in patent US12465589B2, “Method and composition for treating CNS disorders” (IGC Pharma IP, LLC, priority 2018, dated 2025).

Experiments:
[1] = test system: acetylcholinesterase (AChE); settings: THC 50 micromolar
[2] = literature reports
Aβ protein = Aβ protein (Homo sapiens, UniProt P05067); settings: in vitro
AD patients = settings: supplementation

Aβ protein, sequence (P05067 672-713 limits assumed): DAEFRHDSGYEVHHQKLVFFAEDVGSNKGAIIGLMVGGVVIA

Compound: CCCCCc1cc(O)c2c(c1)OC(C)(C)[C@@H]1CCC(C)=C[C@@H]21 [THC, Δ9-tetrahydrocannabinol]
- AChE-induced amyloid β-peptide (Aβ) aggregation [1]: prevents
- inhibition of acetylcholinesterase (AChE) [1]: competitively inhibits
- side effects of ingestion [2]: acute psychotic reactions, anxiety, impaired neuropsychological performance, impaired memory, executive functioning disorder, mitochondrial dysfunction, neuron apoptosis

Compound: COc1cc(/C=C/C(=O)CC(=O)/C=C/c2ccc(O)c(OC)c2)ccc1O [curcumin]
- aggregation of Aβ (Aβ protein): prevent the aggregation of Aβ
- binding to Aβ protein (Aβ protein): bind to Aβ protein

Compound: COc1ccc2[nH]cc(CCNC(C)=O)c2c1 [melatonin, N-acetyl-5-methoxytryptamine]
- circadian rhythmicity (AD patients): improve circadian rhythmicity
- memory (AD patients): beneficial effects on memory
